Experimental findings from patent US20210401931A1, “METHODS AND MATERIALS FOR TREATING CANCER” (Mayo Foundation for Medical Education and Research, priority 2018, published 2021) are described below.

This experiment relates to NFκB target genes. Nature of the experiment: Expression of NFκB target genes in PC-3 cells (RNA-seq, RT-qPCR). The experiment is classed as cell-based, human. The settings on record: PC-3 cells expressing peptide, TNFα 20 ng/mL, 24 hours. The protocol:
FIGS. 4A-G. RB globally regulates NFkB transcriptional program in cells. […] (F, G) PC-3 cell were treated with or without palbociclib (5 μM) for 24 hours or PC-3 cells were infected with lentivirus expressing control shRNA or RB-specific shRNA following puromycin selection after 48 hours infection. Cells were harvested for RT-qPCR (F) and ChIP-qPCR (G) analysis of p65 binding at the promotor of PD-L1, GADD45B, NR4A2, and CD83. All data were shown as mean values±SD (n=3). * P<0.05, ** P<0.01, ***P<0.001.
FIGS. 16A-K. Mutual exclusivity of PTEN and MAP3K7 gene deletion in human cancers and CDK4/6 inhibition-mediated blockage of MAP3K7 deficiency-induced death of PTEN-null cells. (A) Genetic alterations of MAP3K7 and PTEN genes in the TCGA prostate cancer dataset. (B) Genetic alterations of MAP3K7 and PTEN genes in lymphoid neoplasm diffuse large B-cell lymphoma, stomach adenocarcinoma, pancreatic cancer, liver cancer, bladder urothelial carcinoma, and lung adenocarcinoma. (C-E) PC-3 cells were infected with lentivirus expressing control or MAP3K7-specific shRNAs. 72 hours after infection, cells were harvested for western blotting (C), cell growth assay (D), and colony formation assay (E). All data were shown as mean values±SD (n=3). ns, not significant, * P<0.05 comparing to the shControl group. (F-H) LNCaP-RF prostate cancer cells were infected with lentivirus expressing control or MAP3K7-specific shRNAs. 72 hours after infection, cells were harvested for western blotting (F), cell growth assay (G), and colony formation assay (H). All data are shown as mean values±SD (n=3). ns, not significant, * P<0.05 comparing to the shControl group. (I-K) PC-3 cells were infected with lentivirus expressing control, MAP3K7 or CHD1-specific shRNAs. 72 hours after infection, cells were treated with DMSO or palbociclib (5 μM). […]
FIGS. 17A-I. Negative regulation of MAP3K7-IKK-NFκB and CHD1-NFκB signaling by RB. […] 72 hours after infection and puromycin selection, cells were injected s.c. into the right flank of NSG mice, and tumor growth was measured for 21 days. […]

Ends that are not written are not given here.

Turning to “RL-S249D/T252D: S249/T252 phospho-mimicking R-Linker (RL) peptide: fragment of RB-N containing 21 amino acids surrounding S249/T252, expressed SFB-tagged or by lentivirus (NGDPRDPRRGQNRSARIAKQL; also: expressed SFB-tagged (tag left off))”, the “TNFα-induced expression of NFκB target genes” value is “blocked”.
